For two compounds, TGI results are on record in PubChem BioAssay (NCI).

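Step 1: Grow cells in 96-well plates. Step 2: Expose to compound for 48 hours at 5 concentrations. Step 3: Interpolate endpoints linearly; if unreached, use highest concentration. TGI marks complete inhibition of growth.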 Some results are limits rather than exact numbers.

Among the test systems are LOX IMVI melanoma; SN12C renal; COLO 205 colon; MDA-MB-435; SNB-75 CNS; OVCAR-8 ovarian; HT29 colon; UACC-257 melanoma; 786-0 renal; SW-620 colon; SK-MEL-28 melanoma; NCI-H23 lung; OVCAR-3 ovarian; SK-MEL-5 melanoma; MOLT-4 leukemia; MALME-3M melanoma.
Holding throughout (assay): NCI-60 cell line screen, 48 h

On to `NC(=O)C(c1ccccc1)N1OC2C(=O)N(Cc3ccccc3)C(=O)C2C1c1cccc(Oc2ccc(Cl)cc2)c1` (configuration not stated), for which the TGI is 34.2 µM in the test with LOX IMVI melanoma; 30.7 µM with SN12C renal; 32 µM with COLO 205 colon; > 100 µM with MDA-MB-435; > 100 µM with SNB-75 CNS; > 100 µM in the test with OVCAR-8 ovarian. Besides, the TGI with HT29 colon is 35.6 µM; with UACC-257 melanoma, > 100 µM; in the test on 786-0 renal, 50 µM; in the test with SW-620 colon it was > 100 µM; in the test on SK-MEL-28 melanoma, > 100 µM; in the test on NCI-H23 lung, > 100 µM. Besides, the TGI is 43.1 µM with OVCAR-3 ovarian, 30.4 µM in the test on SK-MEL-5 melanoma, 98.9 µM in the test on MOLT-4 leukemia and > 100 µM with MALME-3M melanoma.

Take `COC(=O)c1ccccc1/C=C1/Cc2cccc(C)c2C1=O`: the TGI with LOX IMVI melanoma, in the test on SN12C renal, with COLO 205 colon, in the test on MDA-MB-435, in the test with SNB-75 CNS and in the test on OVCAR-8 ovarian was > 100 µM in each case. In addition, the TGI in the test with HT29 colon, in the test with UACC-257 melanoma, in the test on 786-0 renal, with SW-620 colon, in the test on SK-MEL-28 melanoma and with NCI-H23 lung was > 100 µM throughout. In addition, the TGI in the test on OVCAR-3 ovarian, with SK-MEL-5 melanoma, in the test with MOLT-4 leukemia and in the test with MALME-3M melanoma was > 100 µM in each case.
